In patent US10509041B2, “Glucose derivative, and cell imaging method and imaging agent using said derivative” (HIROSAKI UNIVERSITY, priority 2014, dated 2019):
“And” between values parts separate entries of the source, which are not always exact repeats. Equal entries are not always repeated.

Columns and labels:
[1] = system: mouse insulinoma cells (MIN6); test: Increase in fluorescence intensity (uptake) after administration of fluorescent glucose derivative to MIN6 cells, influence of cytochalasin B (CB) or phloretin (PHT), fluorescence microplate reader; assay type: cell-based; details: 2-NBDG 200 μM, 5 minutes; PHT 150 μM; MIN6 13 days of culture; average, two independent experiments
[2] = system: mouse insulinoma cells (MIN6); test: as above; assay type: cell-based; details: 2-NBDG 200 μM, 5 minutes; CB 10 μM; MIN6 13 days of culture; average, two independent experiments
Procedure: Increase in fluorescence intensity caused by the administration of CDG, and the influence of a glucose transporter (GLUT) inhibitor CB thereon were confirmed by targeting MIN6 cells.
A 96-well clear-bottom plate having wells of 8 rows (A to H) and 12 columns (1 to 12) (μClear-PLATE, Greiner Bio-One, BLACK) was used in measurement. A culture solution containing MIN6 cells suspended at a density of 60×10^4 cells/mL was added dropwise at 10 μL/well to the central portion of the well, and then, the plate was left standing for 40 minutes in an incubator for fixation. The cells were cultured by the addition of a culture solution at 200 μL/well (6000 cells/well). For layout, the cells were seeded to wells B to H on the third column and wells A to G on the fifth column. Medium replacement was performed by replacing half the amount with a fresh one once every two days at 0 to 4 DIV (days in vitro) and every day at 5 DIV or later. […]
CDG and 2-NBDG were each independently administered to the wells on the third and fifth columns using an 8-channel pipette such that these derivatives were alternately placed on the same plate. Before the administration, the autofluorescence of each well was measured in advance using a fluorescence microplate reader (Flex Station, Molecular Devices, LLC). […] The measurement was conducted at Bottom Read, Averaging 3, and Photomultiplier sensitivity high. […]

## O=[N+]([O-])c1ccc(N[C@H]2C(O)O[C@H](CO)[C@@H](O)[C@@H]2O)c2nonc12 (stereo partly drawn) [Compound 2-NBDG, 2-[N-(7-nitrobenz-2-oxa-1,3-diazol-4-yl)amino]-2-deoxy-D-glucose, reference compound]
[1]
  fluorescence intensity in the presence of PHT relative to the absence of PHT: 18.6% and 15.7%
[2]
  fluorescence intensity in the presence of CB relative to the absence of CB: 30.8% and 36.4%
